Several values for one entry are separate records, joined by “and”; a condition that tells them apart may be missing. Equal entries are not always repeated.
How the values were obtained:
[1] = mn = molality of the nth substance listed, in mol/kg; settings: 100 kPa, Liquid; for viscosity: Capillary tube (Ostwald / Ubbelohde) method; for mass density: Vibrating tube method
[2] = 100 kPa, Liquid; for mass density: Vibrating tube method

CCCCCCn1cc[n+](C)c1.[Cl-] [1-hexyl-3-methylimidazolium chloride] + CC#N
[1]
Settings | mass density, 298.15 K [kg/m3] | mass density, 303.15 K [kg/m3] | mass density, 308.15 K [kg/m3] | mass density, 313.15 K [kg/m3] | viscosity, 298.15 K [mPa·s]
m1 = 0.0205 | 777.74 | 772.53 | 764.33 | 756.52 | –
m1 = 0.022 | – | – | – | – | 0.3485
m1 = 0.041 | 778.81 | 773.62 | 765.43 | 757.67 | –
m1 = 0.0461 | – | – | – | – | 0.3524
m1 = 0.06 | 779.78 | 774.61 | 766.44 | 758.72 | –
m1 = 0.0622 | – | – | – | – | 0.3551
m1 = 0.0809 | 780.84 | 775.69 | 767.53 | 759.86 | –
m1 = 0.0814 | – | – | – | – | 0.3589
m1 = 0.1002 | 781.8 | 776.66 | 768.53 | 760.89 | –
m1 = 0.1057 | – | – | – | – | 0.3631
m1 = 0.1197 | 782.75 | 777.64 | 769.5 | 761.94 | –
m1 = 0.123 | – | – | – | – | 0.367
m1 = 0.1374 | 783.62 | 778.51 | 770.4 | 762.83 | –
m1 = 0.1423 | – | – | – | – | 0.3696
m1 = 0.1544 | 784.44 | 779.33 | 771.23 | 763.72 | –
m1 = 0.1606 | – | – | – | – | 0.3741
m1 = 0.1788 | 785.56 | 780.48 | 772.4 | 764.93 | –
m1 = 0.181 | – | – | – | – | 0.3776
m1 = 0.1969 | 786.4 | 781.33 | 773.26 | 765.84 | –
m1 = 0.2045 | – | – | – | – | 0.3813

CCC[n+]1ccn(C)c1.[Br-] [1-methyl-3-propylimidazolium bromide] + CC#N
[1]
Settings | mass density, 298.15 K [kg/m3] | mass density, 303.15 K [kg/m3] | mass density, 308.15 K [kg/m3] | mass density, 313.15 K [kg/m3] | viscosity, 298.15 K [mPa·s]
m1 = 0.0248 | 778.67 | 773.46 | 763.49 | 757.41 | –
m1 = 0.0251 | – | – | – | – | 0.3488
m1 = 0.0422 | – | – | – | – | 0.3525
m1 = 0.0423 | 780.09 | 774.88 | 764.92 | 758.84 | –
m1 = 0.0636 | 781.79 | 776.59 | 766.63 | 760.57 | –
m1 = 0.0644 | – | – | – | – | 0.3573
m1 = 0.081 | 783.18 | 777.98 | 768.02 | 761.96 | –
m1 = 0.0816 | – | – | – | – | 0.3607
m1 = 0.1036 | 784.95 | 779.74 | 769.8 | 763.74 | –
m1 = 0.1051 | – | – | – | – | 0.3633
m1 = 0.123 | 786.44 | 781.24 | 771.31 | 765.27 | –
m1 = 0.1245 | – | – | – | – | 0.3675
m1 = 0.1437 | 788.02 | 782.86 | 772.93 | 766.87 | –
m1 = 0.1461 | – | – | – | – | 0.3724
m1 = 0.1636 | 789.52 | 784.35 | 774.44 | 768.39 | –
m1 = 0.1667 | – | – | – | – | 0.3771
m1 = 0.1835 | 791.02 | 785.84 | 775.93 | 769.89 | –
m1 = 0.1873 | – | – | – | – | 0.38
m1 = 0.2042 | 792.57 | 787.39 | 777.47 | 771.44 | –
m1 = 0.2082 | – | – | – | – | 0.3844

CCCCCn1cc[n+](C)c1.[Br-] [1-pentyl-3-methylimidazolium bromide] + CC#N
[1]
Settings | mass density, 298.15 K [kg/m3] | mass density, 303.15 K [kg/m3] | mass density, 308.15 K [kg/m3] | mass density, 313.15 K [kg/m3] | viscosity, 298.15 K [mPa·s]
m1 = 0.03 | 779.11 | 770.63 | 762.52 | 755.09 | –
m1 = 0.0301 | – | – | – | – | 0.3532
m1 = 0.0509 | 780.82 | 772.34 | 764.26 | 756.83 | –
m1 = 0.0511 | – | – | – | – | 0.3605
m1 = 0.0721 | 782.52 | 774.06 | 765.99 | 758.59 | –
m1 = 0.0726 | – | – | – | – | 0.366
m1 = 0.1016 | 784.87 | 776.42 | 768.38 | 760.99 | –
m1 = 0.1026 | – | – | – | – | 0.3724
m1 = 0.123 | 786.55 | 778.11 | 770.11 | 762.71 | –
m1 = 0.1245 | – | – | – | – | 0.3782
m1 = 0.1434 | 788.15 | 779.71 | 771.7 | 764.33 | –
m1 = 0.1455 | – | – | – | – | 0.3814
m1 = 0.1628 | 789.62 | 781.22 | 773.22 | 765.86 | –
m1 = 0.1655 | – | – | – | – | 0.3873
m1 = 0.1944 | 792 | 783.62 | 775.67 | 768.32 | –
m1 = 0.1983 | – | – | – | – | 0.3928
m1 = 0.211 | 793.26 | 784.87 | 776.92 | 769.58 | –
m1 = 0.2155 | – | – | – | – | 0.3975
m1 = 0.2313 | 794.76 | 786.39 | 778.44 | 771.12 | –
m1 = 0.2367 | – | – | – | – | 0.4016

CCCCCCn1cc[n+](C)c1.[Br-] [3-hexyl-1-methyl-1H-imidazolium bromide] + CC#N
[1]
Settings | mass density, 298.15 K [kg/m3] | mass density, 303.15 K [kg/m3] | mass density, 308.15 K [kg/m3] | mass density, 313.15 K [kg/m3] | viscosity, 298.15 K [mPa·s]
m1 = 0.0208 | 778.37 | 773.15 | 763.14 | 754.27 | –
m1 = 0.0209 | – | – | – | – | 0.353
m1 = 0.0449 | 780.33 | 775.12 | 765.12 | 756.27 | –
m1 = 0.0451 | – | – | – | – | 0.3625
m1 = 0.0648 | 781.93 | 776.74 | 766.75 | 757.91 | –
m1 = 0.0653 | – | – | – | – | 0.367
m1 = 0.0817 | 783.29 | 778.1 | 768.12 | 759.29 | –
m1 = 0.0824 | – | – | – | – | 0.372
m1 = 0.1001 | 784.72 | 779.55 | 769.58 | 760.76 | –
m1 = 0.1011 | – | – | – | – | 0.3774
m1 = 0.124 | 786.57 | 781.42 | 771.48 | 762.66 | –
m1 = 0.1255 | – | – | – | – | 0.3842
m1 = 0.1424 | 788 | 782.85 | 772.92 | 764.1 | –
m1 = 0.1445 | – | – | – | – | 0.3882
m1 = 0.1649 | 789.72 | 784.57 | 774.66 | 765.86 | –
m1 = 0.1676 | – | – | – | – | 0.3937
m1 = 0.1832 | 791.1 | 785.97 | 776.06 | 767.28 | –
m1 = 0.1866 | – | – | – | – | 0.3982
m1 = 0.2011 | 792.44 | 787.33 | 777.41 | 768.63 | –
m1 = 0.2052 | – | – | – | – | 0.4022

CC#N [acetonitrile]
Settings | viscosity [mPa·s]
[2], 298.15 K, Capillary tube (Ostwald / Ubbelohde) method | 0.343

[2]
Settings | mass density
298.15 K | 776.65 kg/m3
303.15 K | 771.43 kg/m3 and 768.14 kg/m3
308.15 K | 761.45 kg/m3 [middle of 4 runs]
313.15 K | 755.34 kg/m3 [middle of 4 runs]
